Experimental data taken from US11884649B2, “IRE1α inhibitors and uses thereof” (The Regents of the University of California, priority 2020, dated 2024).

Assays:
[1] = tested on: XBP1 mRNA splicing; assay: XBP1 mRNA splicing in INS-1 cells conditionally overexpressing IRE1α (Dox); assay type: cell-based, rat; details: 5 ng/mL Dox; 20 μM for XBP1s immunoblot
Protocol: RNA Isolation, Quantitative Real-Time PCR, and Primers
INS-1 or isogenic IRE1α-overexpressing INS-1 cells were plated onto Poly-D-Lysine coated tissue culture plate and grown for 48 hrs. Inhibitors or DMSO were added to the media and incubated for 1 hour at 37° C. with 5% CO2 prior to addition of ER stress agents or Dox as indicated. RNA was isolated from whole cells using either QIAGEN RNeasy Mini kits or Trizol (Invitrogen) and reverse transcribed as above to obtain total cDNA. Then, XBP-1 primers were used to amplify an XBP-1 amplicon spanning the 26 nt intron from the cDNA samples in a regular 3-step PCR. Thermal cycles were: 5 min at 95° C., 30 cycles of 30 s at 95° C., 30 s at 60° C., and 1 min at 72° C., followed by 72° C. for 15 min, and hold at 4° C. Primers used for XBP-1 mRNA splicing were as follows: sense primer XBP1.3 S (5′ […]-3′ (SEQ ID NO:2)) and antisense primer XBP1.2AS (5′-[…]-3′ (SEQ ID NO:3)). PCR fragments were then digested by PstI, resolved on 3% agarose gels, stained with EtBr and quantified by densitometry using ImageJ (NIH). For standard mRNA detection, generally […] total RNA was reverse transcribed using the QuantiTect Reverse Transcription Kit (QIAGEN). For qPCR, we used SYBR green (QIAGEN) and StepOnePlus Real-Time PCR System (Applied Biosystems). Thermal cycles were: 5 min at 95° C., 40 cycles of 15 sec at 95° C., 30 sec at 60° C. Gene expression levels were normalized to Beta Actin. Primers used for qPCR of RIDD targets were as follows: Beta Actin Fwd: 5′-[…]-3′ (SEQ ID NO:4), Beta Actin Rev: 5′-[…]-3′ (SEQ ID NO:5), Insulin 1 Fwd: 5′-GTCCTCTGGGAGCCCAAG-3′ (SEQ ID NO:6), Insulin 1 Rev: 5′-ACAGAGCCTCCACCAGG-3′ (SEQ ID NO:7), Insulin 2 Fwd: 5′-ATCCTCTGGGAGCCCCGC-3′ (SEQ ID NO:8), Insulin 2 Rev: 5′-AGAGAGCTTCCACCAAG-3′ (SEQ ID NO:9), Blos1 Fwd: 5′-[…]-3′ (SEQ ID NO:10), and Blos1 Rev: 5′-[…]-3′ (SEQ ID NO:11).
(§1) RNA was extracted using Trizol (Invitrogen), DNaseI treated, and cDNA products encompassing the intron amplified by QuantiTect Reverse Transcription Kit (Qiagen). sense Primer rXBP Forward (5′-[…]-3′ (SEQ ID NO:12)) and antisense primer rXBP Reverse (5′-[…]-3′ (SEQ ID NO:13)) were used. PCR fragments were digested by PstI, resolved on 3% agarose gels, stained with EtBr, and quantified by densitometry.
as §1, with “XBP1 splicing for FIGS. 33A-33F: RNA” for “RNA”, “(Invitrogen),” for “(Invitrogen), DNaseI treated, and”, “(Qiagen). Sense” for “(Qiagen). sense”, “rXBP splicing” for “rXBP”

[2] = biological target: T1, IRE1α (Mus musculus, UniProt Q9EQY0); assay: IRE1α autophosphorylation by Phos-tag SDS-PAGE in INS-1 cells expressing IRE1α under Dox control; assay type: cell-based, rat; details: various concentrations, 5 ng/mL Dox
T1 construct: expressed in transfected cells
T1 sequence (Q9EQY0 21-977): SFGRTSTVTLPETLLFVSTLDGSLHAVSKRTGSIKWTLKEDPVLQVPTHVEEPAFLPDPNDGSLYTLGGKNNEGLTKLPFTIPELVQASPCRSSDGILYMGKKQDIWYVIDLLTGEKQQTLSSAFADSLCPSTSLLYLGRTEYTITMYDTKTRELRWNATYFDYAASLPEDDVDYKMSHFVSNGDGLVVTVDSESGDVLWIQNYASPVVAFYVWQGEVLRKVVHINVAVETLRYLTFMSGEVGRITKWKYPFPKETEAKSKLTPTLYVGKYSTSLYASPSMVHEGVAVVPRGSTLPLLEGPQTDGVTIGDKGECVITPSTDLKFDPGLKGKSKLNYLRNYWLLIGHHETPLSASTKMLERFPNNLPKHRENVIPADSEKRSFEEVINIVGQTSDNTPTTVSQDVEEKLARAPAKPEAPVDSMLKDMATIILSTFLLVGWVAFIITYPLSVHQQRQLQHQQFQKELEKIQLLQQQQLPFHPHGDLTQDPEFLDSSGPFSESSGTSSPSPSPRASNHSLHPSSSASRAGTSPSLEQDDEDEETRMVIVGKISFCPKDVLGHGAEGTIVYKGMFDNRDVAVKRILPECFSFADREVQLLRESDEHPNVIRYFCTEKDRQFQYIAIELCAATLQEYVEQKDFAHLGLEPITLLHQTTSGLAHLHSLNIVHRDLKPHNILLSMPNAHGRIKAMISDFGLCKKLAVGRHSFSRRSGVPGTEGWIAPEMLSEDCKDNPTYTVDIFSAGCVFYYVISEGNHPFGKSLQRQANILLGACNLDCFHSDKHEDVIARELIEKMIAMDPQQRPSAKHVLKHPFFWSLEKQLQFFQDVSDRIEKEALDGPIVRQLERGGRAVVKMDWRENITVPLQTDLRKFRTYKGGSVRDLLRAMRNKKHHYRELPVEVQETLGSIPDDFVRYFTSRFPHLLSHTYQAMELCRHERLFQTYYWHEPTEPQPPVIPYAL
Protocol: We next tested PAIR1 and KIRA9 in an INS-1 rat insulinoma stable cell line where IRE1α activation can be achieved through conditional overexpression of a mouse IRE1α transgene (Han et al., 2009).
Treatment Conditions for Phostag Gels
INS-1 or IRE1α-overexpressing isogenic INS-1 cells were plated onto a 24-well Poly-D-Lysine coated tissue culture plate and grown for 48 hrs. Inhibitor or DMSO were added to the media and incubated for 1 hour at 37° C. with 5% CO2 prior to addition of ER stress agents. […] Cells were lysed directly into SDS loading buffer (50 mM Tris, 100 mM DTT, 2% SDS (w/v), 10% glycerol (v/v), and 0.1% bromophenol blue (w/v), pH 6.8) and boiled for five minutes prior to gel loading.
Phostag Acrylamide Gel Procedure
A phostag acrylamide gel recipe used to resolve phosphorylation of IRE1α has been previously established and this recipe was followed verbatim for this study.^91 Resolving gels were allowed to solidify (˜1.5 hr) before adding the stacking gel and comb and allowed to solidify (˜1 hr). Gels were run using Tris-Glycine-SDS running buffer (25 mM Tris, 192 mM glycine, 0.1% SDS, pH 8.3) at 100 V for 3-3.5 hours. After the gels have ran, they were transferred onto nitrocellulose paper via rapid transfer using a Transblot Turbo and premade transfer packs. Gels were transferred at 25 V, 2.5 A for 15 minutes. […]

SMILES | XBP1 mRNA splicing and expression of Xbp1s [1] | IRE1α autophosphorylation [2]
O=S(=O)(CC(F)(F)F)Nc1ccc(Oc2ncccc2-c2ccnc(N[C@H]3CCCNC3)n2)c2ccccc12 (stereo in doubt) [PAIR1, 2,2,2-trifluoro-N-(4-(3-(2-(piperidin-3-ylamino)pyrimidin-4-yl)pyridin-2-yloxy)naphthalen-1-yl)ethanesulfonamide] | largely preserved | equivalently block the autophosphorylation
O=S(=O)(CCC(F)(F)F)Nc1ccc(Oc2ncccc2-c2ccnc(NC3CCCNC3)n2)c2ccccc12 (stereo not shown) [KIRA9, 3,3,3-trifluoro-N-(4-(3-(2-(piperidin-3-ylamino)pyrimidin-4-yl)pyridin-2-yloxy)naphthalen-1-yl)propane-1-sulfonamide] | more vigorously inhibited these outputs | equivalently block the autophosphorylation
